Key:
Assay type in all cases: cell-based
[1] = test system: A2780 ovarian cancer cells; assay: SRB assay (cytostasis, 48 h) on A2780 cells; settings: 48 h treatment
Experimental: First, we assessed a set of osmium complexes (similar to Ia [[Kacsir et al., 2022]) in Figure 1] and their sugar-derived ligands, in which the benzoyl protective groups on the carbohydrate moiety were replaced by aliphatic acyl groups of different chain length (straight chain C3-C7–CO). Osmium was selected as a central ion, since osmium complexes had the best biological activity in our previous studies ([Balázs et al., 2022]; [Kacsir et al., 2022]). These compounds were tested on A2780 ovarian cancer cells for toxicity and cytostasis. The therapy of ovarian cancer is centered around platinum compounds ([Brown et al., 2019]; [Sipos et al., 2021]), therefore, it was logical to use a cellular model of ovarian cancer for the initial testing of the compounds. Toxicity was assessed using the MTT assay that measures the activity of mitochondrial complex I. We chose 4 h long treatment as in an MTT assay this time point is suitable to detect rapid, direct toxicity. Cytostasis was assessed after 48 h of treatment using the SRB assay that assesses protein content that corresponds to cell count. The characteristics of the compounds are detailed in Table 2.
3 × 10^3 A2780 cells, were plated to 96 well plates. Cells were treated with the compounds in the concentrations indicated for either 4 h for an MTT assay or for 48 h for an SRB assay. Data is represented as average ± SD, from three biological replicates; individual assays were performed in duplicates. Values were normalized for vehicle treated cells, absorbance for vehicle treated cells equals to 1. […] Except for the Os-6 complex, Two-way ANOVA test was performed and all values were compared with each other (Tukey’s post hoc test). […] Non-linear regression was performed on the data.
(§1) 3 × 10^3 A2780 cells, 2 × 10^3 ID8 cells and 4 × 10^3 primary fibroblasts were plated to 96 well plates. Cells were treated with the compounds in the concentrations indicated for either 4 h for an MTT assay or for 48 h for an SRB assay. Data is represented as average ± SD, from three biological replicates; individual assays were performed in duplicates. Values were normalized for vehicle treated cells, absorbance for vehicle treated cells equals to 1. Statistical significance was assessed using two-way ANOVA test comparing the free ligand and each complex as a complex-ligand pair. Before the test normality was assessed using the D’Agostino-Pearson test. The ID8 SRB Ir-7+L-7 dataset had lognormal distribution. […] All other datasets had normal distribution. For better visibility the p values are presented in an excel sheet at https://figshare.com/s/2c942a812caea8869a67. Non-linear regression was performed on the A2780 SRB and the ID8 SRB datasets.
(§2) The assay was performed similar to ([Kovács et al., 2019]). Cells were seeded in 96 well plates the day before the assay. Cells were treated with the compounds for 48 h. Cells were fixed with 10% trichloroacetic acid (TCA). Fixed cells were washed in distilled water 3 times followed by staining with SRB (0.4 m/V% dissolved in 1% acetic acid) for 10 min. Stained cells were washed in 1% acetic acid 5 times; acetic acid was removed and cells were left to dry. Protein-bound SRB was released by adding 100 µl 10 mM Tris base. Plates were measured in a plate photometer (Thermo Scientific Multiscan GO spectrophotometer, Waltham, MA, United States) at 540 nm. On each plate wells were designed to contain vehicle-treated cells. In calculations the readings for these wells was considered as 1 and all readings were expressed relative to these values.
Statistical analysis was performed using 8.0.1 version of Graphpad Prism. Values were tested for normal distribution using the D’Agostino and Pearson normality test. When necessary, values were log normalized or were normalized using the Box-Cox normalization method ([Box and Cox, 1964]) as indicated in the figure captions. […]

[2] = test system: primary dermal fibroblasts; assay: SRB assay (48 h) on primary fibroblasts; settings: primary human dermal fibroblasts
Experimental: as §1
Human primary dermal fibroblasts were cultured in low glucose DMEM (1 g/L glucose) medium supplemented with 20% fetal calf serum, 2 mM glutamine, 1% penicillin-streptomycin.
as §2

[3] = test system: methicillin-resistant Staphylococcus aureus (MRSA) clinical isolates; assay: Broth microdilution MIC, clinical MRSA isolates; settings: for MIC against clinical MRSA isolates (as a group): 6 clinical MRSA isolates; for MIC, MRSA 20 426: clinical isolate 20 426, blood, 2020; for MIC, MRSA 24 035: clinical isolate 24 035, wound; for MIC, MRSA 24 035 / MIC, MRSA 24 268 / MIC, MRSA 24 272 / MIC, MRSA 24 328 / MIC, MRSA 24 408: 2018; for MIC, MRSA 24 268: clinical isolate 24 268, throat; for MIC, MRSA 24 272: clinical isolate 24 272, throat; for MIC, MRSA 24 328: clinical isolate 24 328, throat; for MIC, MRSA 24 408: clinical isolate 24 408, bronchial
Experimental: The MIC values of the complexes were determined against the reference strains of S. aureus (ATCC29213) and E. faecalis. (ATCC29212) and against clinical VRE and MRSA isolates by microdilution assays (repeated at least twice in duplicates) as described in Materials and Methods. The numbers indicate how many isolates were susceptible to the compound out of those tested; i.e., 1/6 stands for 1 isolate was susceptible out of 6 tested. […] Cells were harvested and lysed. Cellular proteins was separated on a 10% SDS-PAGE gel and were blotted. Blots were probed with 4HNE antibody (top blot), the lower blot was stained with amido black. Arrows point at band of interest. Experiments were repeated three times and a representative blot is shown. On the blots brightness and contrast were adjusted. […] Each was matched to a substance and strain by its position over the x-axis categories. / Ir-7: ND and 0/3 (left plot) and ND and 0/6 (right plot) were matched to E. faecalis/VRE and S. aureus/MRSA by position only.
We used a set of clinical isloates of S. aureus and E. faecium that were collected at the Medical Center of the University of Debrecen (Hungary) between 01. 01. 2018.—31. 12. 2020. The clinical isolates were identified using a Microflex MALDI-TOF mass spectrometer (Bruker, Billerica, MA, United States). Antibiotic susceptibility of the isolates was tested following the European Committee on Antimicrobial Susceptibility Testing ([EUCAST, 2021]) guidelines valid at the time of collection.
Microdilution experiments were performed according to the standards of EUCAST ([EUCAST, 2021]). […] The inoculated plates were incubated for 24 h at 37°C then were assessed visually. […] All experiments were performed at least twice in duplicates.

[4] = test system: 4HNE expression in Enterococcus faecalis reference strain; assay: Western blot for 4HNE in Enterococcus faecalis reference strain; settings: at MIC (Ru-7 5 μM, Os-7 10 µM), 15 min, 30 min, 1 h; band ∼120 kDa
Experimental: The MIC values of the complexes were determined against the reference strains of S. aureus (ATCC29213) and E. faecalis. (ATCC29212) and against clinical VRE and MRSA isolates by microdilution assays (repeated at least twice in duplicates) as described in Materials and Methods. The numbers indicate how many isolates were susceptible to the compound out of those tested; i.e., 1/6 stands for 1 isolate was susceptible out of 6 tested. […] Cells were harvested and lysed. Cellular proteins was separated on a 10% SDS-PAGE gel and were blotted. Blots were probed with 4HNE antibody (top blot), the lower blot was stained with amido black. Arrows point at band of interest. Experiments were repeated three times and a representative blot is shown. On the blots brightness and contrast were adjusted. […]
SDS-polyacrylamide gel electrophoresis and Western blot was performed as in ([Márton et al., 2018]) using an antibody against 4HNE (Abcam (ab46545) 1:1000) that was detected using a corresponding peroxidase-conjugated secondary antibody (1:10000, Cell Signaling Technology, Inc., Beverly, MA, United States). […] ECL and amido black pictures were captured using the ChemiDoc Touch Imaging System (Bio-Rad Laboratories, Inc., Hercules, California, United States) and the pictures were evaluated using the Image Lab software (Bio-Rad).

Row | SMILES | A2780 SRB IC50 [1] | A2780 SRB Max. (maximal inhibition) [1] | IC50 [1] | Fibroblast SRB Max. (maximal inhibition) [2] | MIC against clinical MRSA isolates (as a group) [3] | MIC, MRSA 20 426 [3] | MIC, MRSA 24 035 [3] | MIC, MRSA 24 268 [3] | MIC, MRSA 24 272 [3] | MIC, MRSA 24 328 [3] | MIC, MRSA 24 408 [3] | MRSA isolates susceptible out of those tested ([3]; 6 isolates tested, susceptible = MIC up to 40 µM) | 4HNE expression in Enterococcus faecalis reference strain [4]
1 | Cc1c(C)c(C)[c-](C)c1C.F[P-](F)(F)(F)(F)F.O=C(OCC1OC(n2cc(-c3ccc4ccccc4n3)nn2)C(OC(=O)c2ccccc2)C(OC(=O)c2ccccc2)C1OC(=O)c1ccccc1)c1ccccc1.[Cl][Ir+2] (mixture of isomers) [Ir-7] | submicromolar or low micromolar | >90% | 891 nM | 42.83% | no activity | 40< µM | 40< µM | 40< µM | 40< µM | 40< µM | 40< µM | – | –
2 | Cc1ccc(C(C)C)cc1.F[P-](F)(F)(F)(F)F.O=C(OCC1OC(n2cc(-c3ccc4ccccc4n3)nn2)C(OC(=O)c2ccccc2)C(OC(=O)c2ccccc2)C1OC(=O)c1ccccc1)c1ccccc1.[Cl][Os+] (mixture of isomers) [Os-7] | submicromolar or low micromolar | >90% | 578 nM | 48.94% | 5 µM | 40< µM | 40< µM | 40< µM | 5 µM | 40< µM | 40< µM | 1 out of the 6 | induced 4HNE expression
3 | Cc1ccc(C(C)C)cc1.F[P-](F)(F)(F)(F)F.O=C(OCC1OC(n2cc(-c3ccc4ccccc4n3)nn2)C(OC(=O)c2ccccc2)C(OC(=O)c2ccccc2)C1OC(=O)c1ccccc1)c1ccccc1.[Cl][Ru+] (mixture of isomers) [Ru-7] | submicromolar or low micromolar | >90% | 847 nM | 50.04% | 5 to 40 µM | 10 µM | 40 µM | 20 µM | 5 µM | 10 µM | 10 µM | – | induced 4HNE expression
